Laboratory results: patent US20250011299A1, “PYRIDAZINYL AMINO DERIVATIVES AS ALK5 INHIBITORS” (CHIESI FARMACEUTICI S.P.A., priority 2021, published 2025)

Each molecule was assayed against T1, human ALK5 (Homo sapiens, UniProt P36897) (assay: ADP-GLO Kinases assay of ALK5 enzymatic activity). Settings: purified recombinant human ALK5, TGFβ1 peptide substrate, pIC50 converted to pKi by Cheng-Prusoff, high ATP protocol (15 μM) for very potent compounds, 25° C.
T1 construct: human ALK5 (recombinant TGF β1 N-term GST-tagged, 80-end); GST (N); purchased
T1 sequence (P36897 80-503 limits assumed): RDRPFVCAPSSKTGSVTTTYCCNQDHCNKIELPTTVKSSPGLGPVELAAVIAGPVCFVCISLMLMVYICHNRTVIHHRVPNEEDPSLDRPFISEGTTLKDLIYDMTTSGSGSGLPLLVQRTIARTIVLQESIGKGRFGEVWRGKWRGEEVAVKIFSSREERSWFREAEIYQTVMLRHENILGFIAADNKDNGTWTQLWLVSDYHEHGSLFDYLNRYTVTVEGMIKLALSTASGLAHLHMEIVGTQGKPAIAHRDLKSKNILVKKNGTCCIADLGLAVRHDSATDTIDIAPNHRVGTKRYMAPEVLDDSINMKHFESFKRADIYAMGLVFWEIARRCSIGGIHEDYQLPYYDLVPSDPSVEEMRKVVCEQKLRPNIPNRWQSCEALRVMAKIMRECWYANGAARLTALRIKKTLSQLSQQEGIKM
Format: biochemical
Summary of the method: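 Purified ALK5 preincubated 15 min with compound, then reacted with substrate and ATP; ADP formed read by ADP-Glo luminescence after 120 min or 60 min reaction, all steps at 25° C. 11-point concentration-response; pIC50 converted to pKi via Cheng-Prusoff.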

Compound	Ki [nM]
CN1CCN(CCC(=O)Nc2cc(Nc3cc(-c4cc(Cl)ccc4F)nnc3OC[C@H]3C[C@@](C)(O)C3)ccn2)CC1 [Example 123, N-(4-{[6-(5-chloro-2-fluorophenyl)-3-[(3-hydroxy-3-methylcyclobutyl)methoxy]pyridazin-4-yl]amino}pyridin-2-yl)-3-(4-methylpiperazin-1-yl)propanamide]	0.126 to 0.316
CN1CCN([C@H]2C[C@@H](C(=O)Nc3cc(Nc4cc(-c5cc(Cl)ccc5F)nnc4OC[C@H]4C[C@@](C)(O)C4)ccn3)C2)CC1 [Example 124, Cis N-(4-{[6-(5-chloro-2-fluorophenyl)-3-[(3-hydroxy-3-methylcyclobutyl)methoxy]pyridazin-4-yl]amino}pyridin-2-yl)-3-(4-methylpiperazin-1-yl)cyclobutane-1-carboxamide]	≤ 0.1
COC(=O)C12CC(COc3nnc(-c4cc(Cl)ccc4F)cc3Nc3ccnc(NC(=O)CCN4CCN(C)CC4)c3)(C1)C2 [Example 125, methyl 3-({[6-(5-chloro-2-fluorophenyl)-4-({2-[3-(4-methylpiperazin-1-yl)propanamido]pyridin-4-yl}amino)pyridazin-3-yl]oxy}methyl)bicyclo[1.1.1]pentane-1-carboxylate]	0.126 to 0.316
COC(=O)C12CC(COc3nnc(-c4cc(Cl)ccc4F)cc3Nc3ccnc(NC(=O)[C@H]4C[C@@H](N5CCN(C)CC5)C4)c3)(C1)C2 [Example 126, Cis methyl 3-({[6-(5-chloro-2-fluorophenyl)-4-({2-[(1s,3s)-3-(4-methylpiperazin-1-yl)cyclobutaneamido]pyridin-4-yl}amino)pyridazin-3-yl]oxy}methyl)bicyclo[1.1.1]pentane-1-carboxylate]	≤ 0.1
CCOC(=O)C(C)(C)CN(C)c1nnc(-c2cc(Cl)ccc2F)cc1Nc1ccnc(NC(=O)CCN2CCN(C)CC2)c1 [Example 145, ethyl 3-{[6-(5-chloro-2-fluorophenyl)-4-({2-[3-(4-methylpiperazin-1-yl)propanamido]pyridin-4-yl}amino)pyridazin-3-yl](methyl)amino}-2,2-dimethylpropanoate]	0.126 to 0.316
CN1CCN(CCC(=O)Nc2cc(Nc3cc(-c4cc(Cl)ccc4F)nnc3N3CCC3C(=O)O)ccn2)CC1 (centres unmarked) [Example 151, ammonium 1-[6-(5-chloro-2-fluorophenyl)-4-({2-[3-(4-methylpiperazin-1-yl)propanamido]pyridin-4-yl}amino)pyridazin-3-yl]azetidine-2-carboxylate]	0.398 to 3.16
CN1CCN(CCC(=O)Nc2cc(Nc3cc(-c4cc(Cl)ccc4F)nnc3N(C)CC3(CO)CCOC3=O)ccn2)CC1 (centres unmarked) [Example 152, N-(4-{[6-(5-chloro-2-fluorophenyl)-3-({[3-(hydroxymethyl)-2-oxooxolan-3-yl]methyl}(methyl)amino)pyridazin-4-yl]amino}pyridin-2-yl)-3-(4-methylpiperazin-1-yl)propanamide]	≤ 0.1
O=C(CCN1CCNCC1)Nc1cc(Nc2cc(-c3cc(Cl)ccc3F)nnc2SCCO)ccn1 [Example 153, N-(4-{[6-(5-chloro-2-fluorophenyl)-3-[(2-hydroxyethyl)sulfanyl]pyridazin-4-yl]amino}pyridin-2-yl)-3-(piperazin-1-yl)propanamide]	≤ 0.1
CN1CCN(CCC(=O)Nc2cc(Nc3cc(-c4cc(Cl)ccc4F)nnc3SC[C@H]3C[C@@H](O)C3)ccn2)CC1 [Example 154, N-(4-{[6-(5-chloro-2-fluorophenyl)-3-{[(3-hydroxycyclobutyl)methyl]sulfanyl}pyridazin-4-yl]amino}pyridin-2-yl)-3-(4-methylpiperazin-1-yl)propanamide]	≤ 0.1
CN1CCCN([C@H]2C[C@@H](C(=O)Nc3cc(Nc4cc(-c5cc(Cl)ccc5F)nnc4SCCO)ccn3)C2)CC1 [Example 155, Cis N-(4-{[6-(5-chloro-2-fluorophenyl)-3-[(2-hydroxyethyl)sulfanyl]pyridazin-4-yl]amino}pyridin-2-yl)-3-(4-methyl-1,4-diazepan-1-yl)cyclobutane-1-carboxamide]	0.126 to 0.316
O=C(Nc1cc(Nc2cc(-c3cc(Cl)ccc3F)nnc2SCCO)ccn1)[C@H]1C[C@@H](N2CCN(C3CC3)CC2)C1 [Example 160, Cis N-(4-{[6-(5-chloro-2-fluorophenyl)-3-[(2-hydroxyethyl)sulfanyl]pyridazin-4-yl]amino}pyridin-2-yl)-3-(4-cyclopropylpiperazin-1-yl)cyclobutane-1-carboxamide]	≤ 0.1
O=C(O)C1CCN([C@H]2C[C@@H](C(=O)Nc3cc(Nc4cc(-c5cc(Cl)ccc5F)nnc4SCCO)ccn3)C2)CC1 [Example 167, Cis 1-{3-[(4-{[6-(5-chloro-2-fluorophenyl)-3-[(2-hydroxyethyl)sulfanyl]pyridazin-4-yl]amino}pyridin-2-yl)carbamoyl]cyclobutyl}piperidine-4-carboxylic acid]	0.126 to 0.316
CN1C2CC1CN([C@H]1C[C@@H](C(=O)Nc3cc(Nc4cc(-c5cc(Cl)ccc5F)nnc4SCCO)ccn3)C1)C2 [Example 175, Cis N-(4-{[6-(5-chloro-2-fluorophenyl)-3-[(2-hydroxyethyl)sulfanyl]pyridazin-4-yl]amino}pyridin-2-yl)-3-{6-methyl-3,6-diazabicyclo[3.1.1]heptan-3-yl}cyclobutane-1-carboxamide]	≤ 0.1
CN1CCN(CCC(=O)Nc2cc(Nc3cc(-c4cc(Cl)ccc4F)nnc3SCCO)ncn2)CC1 [Example 176, N-(6-{[6-(5-chloro-2-fluorophenyl)-3-[(2-hydroxyethyl)sulfanyl]pyridazin-4-yl]amino}pyrimidin-4-yl)-3-(4-methylpiperazin-1-yl)propanamide]	≤ 0.1
C[C@@H]1CN(CCC(=O)Nc2cc(Nc3cc(-c4cc(Cl)ccc4F)nnc3SCCO)ncn2)C[C@H](C)N1 [Example 177, N-(6-{[6-(5-chloro-2-fluorophenyl)-3-[(2-hydroxyethyl)sulfanyl]pyridazin-4-yl]amino}pyrimidin-4-yl)-3-(3,5-dimethylpiperazin-1-yl)propanamide]	≤ 0.1
C[C@@H]1CN(CCC(=O)Nc2cc(Nc3cc(-c4cc(Cl)ccc4F)nnc3SCCO)ccn2)C[C@H](C)N1 [Example 178, N-(4-{[6-(5-chloro-2-fluorophenyl)-3-[(2-hydroxyethyl)sulfanyl]pyridazin-4-yl]amino}pyridin-2-yl)-3-(3,5-dimethylpiperazin-1-yl)propanamide]	≤ 0.1
CN1CCN(CCC(=O)Nc2cc(Nc3cc(-c4cc(Cl)ccc4F)nnc3S)ccn2)CC1 [Example 179, N-(4-{[6-(5-chloro-2-fluorophenyl)-3-sulfanylpyridazin-4-yl]amino}pyridin-2-yl)-3-(4-methylpiperazin-1-yl)propanamide]	0.126 to 0.316
CN1CCN(CC23CC(C(=O)Nc4cc(Nc5cc(-c6cc(Cl)ccc6F)nnc5SCCO)ccn4)(C2)C3)CC1 [Example 180, N-(4-{[6-(5-chloro-2-fluorophenyl)-3-[(2-hydroxyethyl)sulfanyl]pyridazin-4-yl]amino}pyridin-2-yl)-3-[(4-methylpiperazin-1-yl)methyl]bicyclo[11.1.1]pentane-1-carboxamide]	≤ 0.1
O=C(Nc1cc(Nc2cc(-c3cc(Cl)ccc3F)nnc2SCCO)ncn1)[C@H]1C[C@@H](N2CCN(C3CC3)CC2)C1 [Example 181, Cis N-(6-{[6-(5-chloro-2-fluorophenyl)-3-[(2-hydroxyethyl)sulfanyl]pyridazin-4-yl]amino}pyrimidin-4-yl)-3-(4-cyclopropylpiperazin-1-yl)cyclobutane-1-carboxamide]	≤ 0.1
CN1CCN(CC23CC(C(=O)Nc4cc(Nc5cc(-c6cc(Cl)ccc6F)nnc5SCCO)ncn4)(C2)C3)CC1 [Example 182, N-(6-{[6-(5-chloro-2-fluorophenyl)-3-[(2-hydroxyethyl)sulfanyl]pyridazin-4-yl]amino}pyrimidin-4-yl)-3-[(4-methylpiperazin-1-yl)methyl]bicyclo[1.1.1]pentane-1-carboxamide]	0.126 to 0.316
O=C(Nc1cc(Nc2cc(-c3cc(Cl)ccc3F)nnc2SCCO)ccn1)C12CC(CN3CCN(C4CC4)CC3)(C1)C2 [Example 183, N-(4-{[6-(5-chloro-2-fluorophenyl)-3-[(2-hydroxyethyl)sulfanyl]pyridazin-4-yl]amino}pyridin-2-yl)-3-[(4-cyclopropylpiperazin-1-yl)methyl]bicyclo[1.1.1]pentane-1-carboxamide]	0.126 to 0.316
Cc1oc(=O)oc1CSc1nnc(-c2cc(Cl)ccc2F)cc1Nc1ccnc(NC(=O)CCN2CCN(C)CC2)c1 [Example 190, N-(4-{[6-(5-chloro-2-fluorophenyl)-3-{[(5-methyl-2-oxo-2H-1,3-dioxol-4-yl)methyl]sulfanyl}pyridazin-4-yl]amino}pyridin-2-yl)-3-(4-methylpiperazin-1-yl)propanamide]	≤ 0.1
C[C@@H]1CN(CC23CC(C(=O)Nc4cc(Nc5cc(-c6cc(Cl)ccc6F)nnc5SCCO)ccn4)(C2)C3)C[C@H](C)N1 [Example 191, N-(4-{[6-(5-chloro-2-fluorophenyl)-3-[(2-hydroxyethyl)sulfanyl]pyridazin-4-yl]amino}pyridin-2-yl)-3-[(3,5-dimethylpiperazin-1-yl)methyl]bicyclo[1.1.1]pentane-1-carboxamide]	0.126 to 0.316
